In PMC10350920, “Development of a 2,4-Diaminothiazole Series for the Treatment of Human African Trypanosomiasis Highlights the Importance of Static–Cidal Screening of Analogues” (Journal of Medicinal Chemistry, 2023):
Like-named read-outs stand apart in the source and are kept apart here.

Assays:
[1] = Kinetic aqueous solubility (laser nephelometry); format: physicochemical; details: Milli-Q water with 2.5% DMSO
Method: The kinetic aqueous solubility of the test compounds was measured using laser nephelometry. Compounds were subject to serial dilution from 10 to 0.5 mM in DMSO. An aliquot was then mixed with Milli-Q water to obtain an aqueous dilution plate with a final concentration range of 13–250 μM, with a final DMSO concentration of 2.5%. Triplicate aliquots were transferred to a flat-bottomed polystyrene plate which was immediately read on the NEPHELOstar (BMG Lab Technologies). The amount of laser scatter caused by insoluble particulates (relative nephelometry units, RNUs) was plotted against compound concentration using a segmental regression fit, with the point of inflection being quoted as the compound’s aqueous solubility (μM).

T. brucei RES I = assay: Drug sensitivity, compound 38-resistant clone RES I; format: cell-based, T. b. brucei
Method: (§1) Drug sensitivity assays were carried out with BSF T. b. brucei “single marker” S427 or BSF T. b. brucei, Lister 427, MiTat 1.2, clone 221a 2T1 cells,[45] cells grown at 37 °C with 5% CO2 in an HMI-9T medium[46] as previously described.[47] 2T1 cells were initially maintained with 1 μg mL^–1 puromycin and 1 μg mL^–1 phleomycin prior to transfection or 2.5 μg mL^–1 hygromycin and 1 μg mL^–1 phleomycin after transfection. Induction of overexpression was achieved by the addition of 1 μg mL^–1 tetracycline to the culture medium.
(§2) Compound-resistant cell lines were generated by subculturing a clone of T. brucei in the continuous presence of 38. Starting at sublethal concentrations, drug concentrations in two independent cultures were increased in a stepwise manner, usually 2-fold. When parasites were able to survive and grow in concentrations of drugs equivalent to more than 10 times the established EC50 value, the resulting cell lines were cloned by limiting dilution in the presence of the compound. Two clones (RES I-II) were selected for further biological study. A standard alkaline lysis protocol was used to isolate genomic DNA from compound-resistant bloodstream T. brucei parasites (∼1 × 10^8). Whole genome sequencing was performed using a DNB-seq next-generation sequencing platform (BGI, Hong Kong). Sequencing reads (150 bp) were aligned to the T. brucei TREU927 genome (v39; tritrypDB) using Bowtie2[48] and Samtools[49] software. […] Samtools and BCFtools[52] (mpileup) were used to call SNP and indels compared with the wild-type starter clone, where the overall quality score (QUAL) was >100. Artemis[50] was used to analyze chromosome and gene copy number variation, as well as visualization of SNPs.

Pharmacokinetics in rats = format: in vivo, Sprague Dawley rats
Method: To determine compound exposure, compounds were dosed by gavage (16, 38) at 10 mg kg^–1 free base (16, 38), dose volume; and 5 mL kg^–1 (16, 38), dose vehicle (10% DMSO/40% PEG400/50% Milli-Q) to female NMRI mice, n = 3/dose level (16), or Sprague Dawley rats (38). Blood samples were taken from each mouse/rat at 5, 15, and 30 min, 1, 2, 4, 6, and 8 h postdose and mixed with two volumes of distilled water. After suitable sample preparation, the concentration of the test compound in blood was determined by UPLC–MS/MS using a Quattro Premier XE (Waters, USA). Pharmacokinetic parameters were derived from the mean blood concentration–time curve using PKsolutions software v 2.0 (Summit Research Services, USA).

[2] = Tolerability / maximum tolerated dose; details: NMRI mice, IP
T. brucei wild-type = assay: Drug sensitivity, wild-type parental line; format: cell-based, T. b. brucei; details: Trypanosoma brucei; weighted mean of ≥3 independent experiments
Method: as §1, §2

[3] = tested on: Tb927.8.6290 overexpressing cell lines (WT); assay: Drug sensitivity, line overexpressing Tb927.8.6290 WT; format: cell-based, T. b. brucei; details: for EC50: Trypanosoma brucei
Method: as §1
(§3) The following primers were used to PCR amplify Tb927.8.6290 from genomic DNA isolated from wild-type and 38-resistant trypanosomes 5′-[…]-3′ (PacI site in bold) and 5′-[…]-3′ (BamHI site in bold). The PCR products (1272 bp) were then cloned into the pRPa plasmid.[53] The accuracy of the plasmid constructs was confirmed by in-house Sanger sequencing and then linearized with AscI prior to transfection. The linearized plasmids were introduced into 2T1 T. b. brucei cells following removal of puromycin from the media and selected with 2.5 μg mL^–1 hygromycin and 1 μg mL^–1 phleomycin. Two independent clones were selected for further studies.

[4] = tested on: Tb927.8.6290 overexpressing cell lines (V241F/A258V); assay: Drug sensitivity, line overexpressing Tb927.8.6290 V241F/A258V; format: cell-based, T. b. brucei; details: for EC50: Trypanosoma brucei
Method: as §1, §3

T. brucei RES II = assay: Drug sensitivity, compound 38-resistant clone RES II; format: cell-based, T. b. brucei
Method: as §1, §2

T. b. brucei S427 = assay: Stage 1 efficacy study in rats; format: in vivo, male SD rats; details: infected rats, single dose, 100 mg kg^–1 PO
Method: Stage 1 efficacy experiments using T. b. brucei S427 were performed as described,[44] with minor modifications. In brief, male SD rats (38) or female HRN (16) and NMRI (16, 38) mice (3–5 per group) were injected intraperitoneally with 1 × 10^4 BSFs of T. brucei. These BSFs come from a stock of cryopreserved stabilates containing 10% glycerol. The stabilate was suspended in 20 mM Hanks’ balanced salt solution with glucose to obtain a trypanosome concentration of 5 × 10^4 cells mL^–1. Each mouse was injected with 0.2 mL. […] Dose concentrations were 1.25, 2.5, 5, 7.5, 10, 30, and 50 mg kg^–1 free base (16) or 100 mg kg^–1 free base (38). The doses were prepared fresh daily, using 5% DMSO/40% PEG400/55% Milli-Q (16) or 15% solutol/85% Milli-Q (38), and the dose volume was 10 mL kg^–1. One group of three mice was an untreated control group.

stage 2 HAT = assay: Stage 2 model of CNS disease; format: in vivo
[5] = relative to the parental wild-type, in brackets
[6] = male, Sprague Dawley, whole blood, rat, PO, 10 mg kg^–1

CC(C)(O)CC(=O)c1sc(Nc2ccc(F)c(F)c2)nc1N [Compound 38, 1-(4-Amino-2-((3,4-difluorophenyl)amino)thiazol-5-yl)-3-hydroxy-3-methylbutan-1-one]
solubility [1]: > 100 µg/mL
EC50 (T. brucei RES I; Trypanosoma brucei, read-out: EC50, RES I): 2200 ± 84 nM
fold resistance, RES I (T. brucei RES I; [5]): 7
free blood Cmax (Pharmacokinetics in rats; male SD rats, 10 mg kg^–1 PO): 195 ng mL^–1
AUC (Pharmacokinetics in rats; [6]): 7830 ng·h/mL
Cmax (Pharmacokinetics in rats; [6]): 1400 ng/mL
Tmax (Pharmacokinetics in rats; [6]): 4 h
maximum dose chosen following maximum tolerated dose study [2]: 100 mg kg^–1
EC50 (T. brucei wild-type): 310 ± 4 nM
EC50 ([3]; read-out: EC50, WT +TET): 10000 ± 250 nM
EC50 ([3]; read-out: EC50, WT –TET): 400 ± 25 nM
fold shift, WT ([3]; −TET vs +TET EC50, in brackets): 26
EC50 ([4]; read-out: EC50, V241F/A258V +TET): 12000 ± 690 nM
EC50 ([4]; read-out: EC50, V241F/A258V –TET): 270 ± 18 nM
fold shift, V241F/A258V ([4]; −TET vs +TET EC50, in brackets): 45
EC50 (T. brucei RES II; Trypanosoma brucei, read-out: EC50, RES II): 8200 ± 490 nM
fold resistance, RES II (T. brucei RES II; [5]): 26
stage 1 efficacy, parasitemia (T. b. brucei S427): no reduction in parasitemia

(4-Amino-2-(cyclohexylamino)thiazol-5-yl)(2,6-difluorophenyl)methanone [Compound 16]
efficacy in stage 2 disease model (stage 2 HAT): not efficacious
